Data: patent publication US8722849B2, “Polypeptides” (Novo Nordisk A/S, priority 2011, dated 2014)
Starred links: 1 amine or outer side, 2 acyl side, 3 side chain; linkers in the order of their positions; H or OH if unused. Positions of bridges follow the written chain, without caps; N, C: chain ends. Residues, ends and D or L forms follow the SMILES beside them. *: point of attachment. C20 diacid = O=C(O)CCCCCCCCCCCCCCCCCCC(=O)*; γGlu = O=C(O)[C@H](CCC(=O)[*:2])N[*:1]

Assays:
[1] = target: T1, human amylin receptor (amylin 3(a) receptor: human calcitonin receptor + RAMP-3) (Homo sapiens, UniProt O60896+P30988); experiment: Assay (II)a functional CRE-luciferase assay, human amylin receptor; format: cell-based; settings: Table 2; BHK amylin 3(a)-receptor/CRE-luc cells
T1 construct: expressed in transfected cells; host or cells: BHK570
T1 sequence (P30988 25-474): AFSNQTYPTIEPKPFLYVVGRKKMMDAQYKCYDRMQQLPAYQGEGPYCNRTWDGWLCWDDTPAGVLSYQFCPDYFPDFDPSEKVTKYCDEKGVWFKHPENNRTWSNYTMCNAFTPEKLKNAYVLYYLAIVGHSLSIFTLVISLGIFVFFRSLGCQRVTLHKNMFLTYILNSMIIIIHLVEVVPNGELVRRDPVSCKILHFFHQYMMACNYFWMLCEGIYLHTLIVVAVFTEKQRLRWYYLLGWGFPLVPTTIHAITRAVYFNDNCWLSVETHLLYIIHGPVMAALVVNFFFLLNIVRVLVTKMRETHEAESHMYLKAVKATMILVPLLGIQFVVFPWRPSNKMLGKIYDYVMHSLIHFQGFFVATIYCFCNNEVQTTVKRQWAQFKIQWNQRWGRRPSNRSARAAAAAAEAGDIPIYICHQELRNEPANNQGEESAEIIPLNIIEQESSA
T1 sequence (O60896 24-148 partner): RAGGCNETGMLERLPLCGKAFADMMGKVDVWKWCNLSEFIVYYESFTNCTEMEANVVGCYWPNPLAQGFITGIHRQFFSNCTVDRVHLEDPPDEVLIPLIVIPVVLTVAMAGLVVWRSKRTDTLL

[2] = test system: food intake; experiment: Assay (I) efficacy testing on appetite (food intake), ad libitum fed rat model; format: in vivo, Sprague Dawley (SD) rats; settings: 3 nmol/kg
How it was run: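 Sprague Dawley rats (200–250 g), single-housed under reversed light cycle with free food and water, got one ip, po or sc dose of 0.01–3 mg/kg just before lights-off. Individual food intake recorded hourly for 7 h, then at 24 h and sometimes 48 h; groups of 5–8, Grubbs outliers excluded.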

[3] = Assay (IX) pK, determination of T½ in mini-pig; format: in vivo, Göttingen mini-pigs; settings: male, Göttingen, iv, 2 nmol/kg; minipig; plasma terminal half-life

CC[C@H](C)[C@H](NC(=O)[C@@H]1CCCN1C(=O)CNC(=O)[C@H](Cc1ccccc1)NC(=O)[C@H](CC(N)=O)NC(=O)[C@H](CC(N)=O)NC(=O)[C@H](CO)NC(=O)[C@H](CO)NC(=O)[C@H](Cc1c[nH]cn1)NC(=O)[C@H](Cc1c[nH]cn1)NC(=O)[C@H](CC(C)C)NC(=O)[C@H](Cc1ccccc1)NC(=O)[C@H](CCC(=O)O)NC(=O)[C@H](C)NC(=O)[C@H](CC(C)C)NC(=O)[C@H](CCCNC(=N)N)NC(=O)[C@H](CCC(N)=O)NC(=O)[C@@H](NC(=O)[C@H](C)NC(=O)[C@@H]1CSSC[C@H](NC(=O)[C@H](CCCNC(=N)N)NC(=O)CC[C@H](NC(=O)CCCCCCCCCCCCCCCCCCC(=O)O)C(=O)O)C(=O)N[C@@H](CC(N)=O)C(=O)N[C@@H]([C@@H](C)O)C(=O)N[C@@H](C)C(=O)N[C@@H]([C@@H](C)O)C(=O)N1)[C@@H](C)O)C(=O)N[C@@H](CC(C)C)C(=O)N1CCC[C@H]1C(=O)N1CCC[C@H]1C(=O)N[C@H](C(=O)N[C@@H](CC(N)=O)C(=O)N[C@H](C(=O)NCC(=O)N[C@@H](CO)C(=O)N[C@@H](CC(N)=O)C(=O)N[C@H](C(=O)N1CCC[C@H]1C(N)=O)[C@@H](C)O)C(C)C)[C@@H](C)O [Example 96, N-alpha-[(S)-4-Carboxy-4-(19-carboxynonadecanoylamino)butyryl]-[Arg1,Glu14,His17,Pro37]-pramlintide] ({C20 diacid-γGlu}-RCNTATCATQRLAEFLHHSSNNFGPILPPTNVGSNTP-NH2; disulfide 2-7 (inferred))
EC50 [1]: 0.043 nM | Food intake reduction 0-24 h 3 nmol/kg (%) ([2]; 0-24 h): 69% | Food intake reduction 24-48 h 3 nmol/kg (%) ([2]; 24-48 h): 89% | half-life [3]: 107 h
